The source of these data is ChEMBL document CHEMBL1201862, “PubChem BioAssay data set” (2004).

Holding throughout (test): NCI anticancer screen, dose series, 48 h
The subject of experiment [1] is A549.
Experiment [2] relates to CAKI-1.
For experiment [3], the system named is CCRF-CEM.
For experiment [4], the system named is DU-145.
Experiment [5] concerns EKVX.
The test system of experiment [6] is HOP-92.
Experiment [7] concerns HT-29.
Experiment [8] deals with IGROV-1.
Experiment [9] deals with MDA-MB-231.
In experiment [10] the test system is OVCAR-3.
Experiment [11] relates to OVCAR-4.
Experiment [12] deals with PC-3.
In experiment [13] the test system is RPMI-8226.
For experiment [14], the system named is SF-295.
The subject of experiment [15] is SR.
The subject of experiment [16] is SW-620.
For experiment [17], the system named is T47D.
Experiment [18] relates to TK-10.
Experiment [19] has as its system UACC-257.
Experiment [20] deals with DLD-1.

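Compound exposure: 48 hours, 5 concentrations, 96-well plates. GI50: concentration for 50% inhibition of growth.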 The source made the active and inactive calls. Rule as the data show it: active = GI50 up to about 1.1 µM and inactive = higher.

`CC1(c2ccccc2)N=c2[nH]cnc2=C(C(N)=O)N1` (configuration not stated): the GI50 in experiment [1], in experiment [2], in experiment [3], in [4], in experiment [5] and in experiment [6] was > 100 µM (inactive) in each case. The GI50 in experiment [7], in experiment [8], in experiment [9], in experiment [10], in [11] and in experiment [12] was > 100 µM (inactive) throughout. In addition, the GI50 in experiment [13], in experiment [14], in experiment [15], in experiment [16], in [17] and in experiment [18] was > 100 µM (inactive) in each case. In addition, the GI50 in experiment [19] was > 100 µM (inactive).

Consider `Cn1c2c(c3ccccc31)CCN(CCN1CCN(c3ccccc3)CC1)C2=O`, for which the GI50 was > 100 µM (inactive) in experiment [1]; > 100 µM (inactive) in experiment [2]; > 100 µM (inactive) in experiment [3]; > 100 µM (inactive) in [20]; > 100 µM (inactive) in [5]; 31.2 µM (inactive) in [6]. Also, the GI50 in [7], in experiment [8], in experiment [13], in experiment [14], in experiment [16] and in [18] was > 100 µM (inactive) throughout.

On to `CN(C)CCCNc1ccc([N+](=O)[O-])c2nc3ccccc3c(N)c12`, for which the GI50 in experiment [1] is 0.512 µM (active); in [2], 2.67 µM (inactive); in [3], 0.243 µM (active); in experiment [4], 0.308 µM (active); in experiment [5], 0.755 µM (active); in [6], 0.516 µM (active). The GI50 in experiment [7] was 0.225 µM (active); in experiment [8], 0.659 µM (active); in experiment [9] it was 0.598 µM (active); in [10] it was 0.63 µM (active); in experiment [11] it was 0.169 µM (active); in experiment [12], 0.394 µM (active). Further, the GI50 in [13] was 0.266 µM (active); in [14] it was 0.382 µM (active); in experiment [15], 0.23 µM (active); in experiment [16], 0.22 µM (active); in [17] it was 0.914 µM (active); in experiment [18] it was 2.27 µM (inactive). In addition, the GI50 in [19] is 1.63 µM (inactive).

Turning to `C=C1CC(C/C=C(\C)CC2CC(=C)C(=O)O2)OC1=O` (configuration not stated), the GI50 in experiment [1], in experiment [2], in experiment [3], in experiment [20], in [5] and in experiment [6] was > 100 µM (inactive) in each case. For the same molecule, the GI50 in experiment [7], in experiment [8], in experiment [10], in [11], in experiment [14] and in experiment [15] was > 100 µM (inactive) each time. For the same molecule, the GI50 in experiment [16], in experiment [18] and in experiment [19] was > 100 µM (inactive) each time.

Turning to `CCN1CCC(O)(/C=C/c2cccc(C)c2)C(C(=O)/C=C/c2cccc(C)c2)C1` (configuration not stated), the GI50 was 2.29 µM (inactive) in [1]; 2 µM (inactive) in experiment [2]; 1.57 µM (inactive) in experiment [3]; 3.94 µM (inactive) in [4]; 2.04 µM (inactive) in experiment [5]; 2.17 µM (inactive) in [6]. In addition, the GI50 in [7] was 1.52 µM (inactive); in experiment [8], 1.94 µM (inactive); in [9], 3.35 µM (inactive); in experiment [10], 3.48 µM (inactive); in [11], 4.31 µM (inactive); in experiment [12], 13.3 µM (inactive). In addition, the GI50 in [13] was 1.77 µM (inactive); in [14] it was 2.28 µM (inactive); in [15] it was 3.74 µM (inactive); in experiment [16], 2.29 µM (inactive); in [17], 2.7 µM (inactive); in [18], 1.71 µM (inactive). The GI50 in experiment [19] is 2.53 µM (inactive).

For the molecule `c1ccc(SC2CCSc3ccccc3C2Sc2ccccc2)cc1` (configuration not stated), the GI50 in experiment [1] is > 100 µM (inactive); in [2] it was 22.8 µM (inactive); in experiment [3] it was > 100 µM (inactive); in experiment [20], > 100 µM (inactive); in [5], > 100 µM (inactive); in [6], 18.8 µM (inactive). The GI50 was 69.2 µM (inactive) in experiment [7]; > 10 µM (inactive) in experiment [8]; 37 µM (inactive) in experiment [10]; > 100 µM (inactive) in experiment [11]; 96.4 µM (inactive) in experiment [13]; 35.2 µM (inactive) in experiment [14]. The values for the GI50 in experiment [16], in [18] and in experiment [19] were > 100 µM (inactive), > 100 µM (inactive) and 27.9 µM (inactive), respectively.

For `CCOC(=O)C1=C(C(=O)OCC)C2(c3ccccc3)N(O1)c1ccccc1C2(C)C` (configuration not stated), the GI50 in experiment [1] is 45.5 µM (inactive); in experiment [2], 26.7 µM (inactive); in [3] it was 39.4 µM (inactive); in [20], 50 µM (inactive); in [5] it was 45.4 µM (inactive); in experiment [7], 69.3 µM (inactive). The GI50 in [8] was 41.8 µM (inactive); in experiment [10] it was 46.9 µM (inactive); in experiment [11], 18.7 µM (inactive); in experiment [13] it was 20.7 µM (inactive); in experiment [14], 45.5 µM (inactive); in experiment [16] it was 94.8 µM (inactive). Also, the GI50 was > 100 µM (inactive) in experiment [18] and 39.2 µM (inactive) in experiment [19].

As to `O=C1C2c3[nH]c4ccccc4c3C3CCC(c4ccccc4)CC3C2C(=O)N1c1ccccc1` (configuration not stated), the GI50 is > 100 µM (inactive) in experiment [1]; 44.3 µM (inactive) in [3]; > 100 µM (inactive) in experiment [20]; > 100 µM (inactive) in experiment [5]; > 100 µM (inactive) in [7]; > 100 µM (inactive) in experiment [8]. The GI50 in [10] is > 100 µM (inactive); in experiment [11] it was 58.5 µM (inactive); in experiment [13], > 100 µM (inactive); in experiment [14] it was > 100 µM (inactive); in [15], 92.5 µM (inactive); in experiment [16] it was > 100 µM (inactive). For the same molecule, the GI50 in [18] is > 100 µM (inactive).

Take `O=[N+]([O-])c1ccc(C2Nn3c(nnc3-c3cccc([N+](=O)[O-])c3)S2)cc1` (configuration not stated): the GI50 in experiment [1] was > 100 µM (inactive); in [2] it was > 100 µM (inactive); in experiment [3], 36.8 µM (inactive); in experiment [4], > 100 µM (inactive); in experiment [5], > 100 µM (inactive); in experiment [6], > 100 µM (inactive). Further, the GI50 in experiment [7], in [8], in experiment [9], in [10], in [11] and in experiment [12] was > 100 µM (inactive) in each case. Further, the GI50 was 42.7 µM (inactive) in experiment [13]; > 100 µM (inactive) in experiment [14]; 84.1 µM (inactive) in [15]; 71.9 µM (inactive) in experiment [16]; 49.4 µM (inactive) in experiment [17]; > 100 µM (inactive) in [18]. Moreover, the GI50 in experiment [19] was > 100 µM (inactive).

Take `CC(NNC(=O)c1cc[n+]([BH2-]C#N)cc1)c1cccc(C(F)(F)F)c1` (configuration not stated): the GI50 in experiment [1] was 86.9 µM (inactive); in [2], > 100 µM (inactive); in experiment [3] it was > 100 µM (inactive); in experiment [4], > 100 µM (inactive); in experiment [5], > 100 µM (inactive); in experiment [6], > 100 µM (inactive). Moreover, the GI50 in experiment [7] is 82.2 µM (inactive); in [8] it was > 100 µM (inactive); in [9], > 100 µM (inactive); in experiment [10] it was 89.3 µM (inactive); in experiment [11], > 100 µM (inactive); in [12], 44 µM (inactive). Besides, the GI50 was 65.2 µM (inactive) in experiment [13]; 50.2 µM (inactive) in experiment [14]; 52.1 µM (inactive) in experiment [15]; > 100 µM (inactive) in [16]; 40.2 µM (inactive) in experiment [17]; > 100 µM (inactive) in experiment [18]. The GI50 in experiment [19] was 68.2 µM (inactive).

Consider `CC(=O)O[C@@]12CO[C@@H]1CC(O)[C@@]1(C)C(=O)[C@H](O)C3=C(C)C(O)C[C@@](O)(C(OC(=O)c4ccccc4)C12)C3(C)C` (some centres not stated), for which the GI50 in experiment [1] was 3.81 µM (inactive); in experiment [2], 24.8 µM (inactive); in [3] it was 0.454 µM (active); in experiment [4], 3.35 µM (inactive); in [5], 5.62 µM (inactive); in experiment [6], 22.6 µM (inactive). Besides, the GI50 in [7] was 0.385 µM (active); in experiment [8], 1.88 µM (inactive); in experiment [9], 4.19 µM (inactive); in experiment [10], 0.454 µM (active); in experiment [11], > 90.8 µM (inactive); in experiment [12] it was 0.881 µM (active). Further, the GI50 in experiment [13] was 0.519 µM (active); in experiment [14] it was 5.32 µM (inactive); in experiment [15] it was 1.06 µM (active); in experiment [16], 0.448 µM (active); in [17], > 100 µM (inactive); in [18], 8.51 µM (inactive). In addition, the GI50 in experiment [19] is 0.684 µM (active).

For `C=CC[P@]1(=O)O[C@H](c2ccccc2)C(C)N1C(C)C` (some centres not stated), the GI50 in [1], in experiment [3], in experiment [20], in experiment [5], in experiment [6] and in experiment [7] was > 100 µM (inactive) each time. Further, the GI50 in [8], in experiment [10], in experiment [13], in [14], in experiment [15] and in experiment [16] was > 100 µM (inactive) throughout. Besides, the GI50 in [18] and in experiment [19] was > 100 µM (inactive) throughout.
